pIC50: −log10 of the molar value. Where a name gives a salt, the structure may show the parent alone. Read-outs that look alike come from different tables or passages of the source.
What was measured:
[1] = test system: ALPK1-dependent NFκB reporter gene activation in HEK293 cells stably expressing an NF-kB reporter (G9 cells); assay: NFκB gene reporter alkaline phosphatase assay; format: cell-based; conditions: read-out: NFkB assay IC50
Description: In embodiments, a compound of Formula I, or a subembodiment described herein, is an inhibitor of ALPK1 as measured, for example, in an in vitro kinase assay, or an assay designed to measure the activation of downstream targets of ALPK1 pathway activation, for example NFkB transcriptional activation and the secretion of proinflammatory cytokines and chemokines, such as IL-8, which is also referred to as CXCL-8. In general, the computer program XL fit was used for data analysis, including non-linear regression analysis. The half maximal inhibitory concentration (IC50) was used as the measure of a compound's effectiveness in the assays. IC50 values were determined using the following logistic equation Y=min+(max−min)/(1+(X/IC50^−hillslpoe), where Y is the value at the compound concentration, X. The concentration response curve fitting was conducted using GraphPad Prism version 6.00 software.
An alkaline phosphatase reporter assay system was used to measure inhibition of ALPK1-dependent NFκB reporter gene activation. Briefly, HEK293 cells stably expressing an NF-kB reporter (referred to herein as “G9 cells”) were maintained in DMEM as described above. For the assay, cells were seeded into 96-well plates at a density of 10,000 cells/well in Freestyle™ 293 Expression Medium (ThermoFisher), and allowed to attach overnight. Cells were pretreated with serially diluted compounds for 30 min and then stimulated with D-glycero-D-manno-6-fluoro-heptose-1β-S-ADP. […] NFkB gene activation was detected using the chromogenic substrate, para-nitrophenyl phosphate (pNPP) according to the manufacturer's protocols (pNPP Phosphatase Assay, Beyotime Biotechnology).

ALPK1 = ALPK1 (Homo sapiens (Human), UniProt Q96QP1); assay: ALPK1 in vitro kinase assay (HTRF of TIFA phosphorylation); format: biochemical; conditions: ALPK1 2 nM, TIFA substrate, ADP-Heptose activator, HTRF readout
Chain of ALPK1 (Q96QP1 whole entry): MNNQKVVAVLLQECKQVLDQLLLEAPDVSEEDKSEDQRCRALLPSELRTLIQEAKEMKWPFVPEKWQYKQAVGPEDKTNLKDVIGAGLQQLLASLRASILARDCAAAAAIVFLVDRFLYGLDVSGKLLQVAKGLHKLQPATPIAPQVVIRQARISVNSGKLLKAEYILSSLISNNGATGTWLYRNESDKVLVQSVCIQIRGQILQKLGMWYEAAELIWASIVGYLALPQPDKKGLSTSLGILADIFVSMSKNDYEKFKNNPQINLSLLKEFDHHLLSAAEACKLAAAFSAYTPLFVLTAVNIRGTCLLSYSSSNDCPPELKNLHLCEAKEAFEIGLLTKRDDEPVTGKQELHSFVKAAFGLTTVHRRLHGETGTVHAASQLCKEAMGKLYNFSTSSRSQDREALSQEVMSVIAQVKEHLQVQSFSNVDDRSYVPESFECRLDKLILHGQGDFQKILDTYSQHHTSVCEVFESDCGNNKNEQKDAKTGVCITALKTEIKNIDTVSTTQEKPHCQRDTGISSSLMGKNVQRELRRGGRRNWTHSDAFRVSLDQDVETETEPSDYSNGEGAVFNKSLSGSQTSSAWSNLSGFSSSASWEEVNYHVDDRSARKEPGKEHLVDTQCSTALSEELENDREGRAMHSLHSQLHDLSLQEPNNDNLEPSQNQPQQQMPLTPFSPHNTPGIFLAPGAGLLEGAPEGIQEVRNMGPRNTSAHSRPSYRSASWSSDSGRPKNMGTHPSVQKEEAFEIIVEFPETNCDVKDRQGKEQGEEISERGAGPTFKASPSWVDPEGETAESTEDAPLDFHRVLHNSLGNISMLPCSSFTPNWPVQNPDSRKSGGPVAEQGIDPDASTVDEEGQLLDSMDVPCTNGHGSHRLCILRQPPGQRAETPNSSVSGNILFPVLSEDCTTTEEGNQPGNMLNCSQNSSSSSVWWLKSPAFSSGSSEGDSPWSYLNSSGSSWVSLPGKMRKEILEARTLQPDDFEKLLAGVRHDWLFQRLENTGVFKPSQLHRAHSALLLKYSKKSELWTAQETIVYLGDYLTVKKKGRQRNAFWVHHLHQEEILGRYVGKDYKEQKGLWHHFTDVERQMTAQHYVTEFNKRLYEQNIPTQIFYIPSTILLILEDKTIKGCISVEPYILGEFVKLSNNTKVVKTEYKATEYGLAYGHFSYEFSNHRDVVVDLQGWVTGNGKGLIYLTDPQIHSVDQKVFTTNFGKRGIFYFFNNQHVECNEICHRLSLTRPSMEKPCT

With C#C[C@](C)(c1ccc(Cl)cc1)c1csc(NC(=O)N2CCc3cc(N4CCNCC4)ccc3C2)n1 (stereo in doubt) [Example A280, N-(4-(2-(4-chlorophenyl)but-3-yn-2-yl)thiazol-2-yl)-6-(piperazin-1-yl)-3,4-dihydroisoquinoline-2(1H)-carboxamide] as the molecule, how does the pIC50 ([1]; Homo sapiens, HEK293) read?
Its pIC50 is 5.66.

How did the pIC50 [1] turn out when C#C[C@](C)(c1ccc(Cl)cc1)c1csc(NC(=O)NCC(C)O)n1 (stereo in doubt) [Example A318, 1-(4-(2-(4-chlorophenyl)but-3-yn-2-yl)thiazol-2-yl)-3-(2-hydroxypropyl)urea] was run?
The pIC50 was 5.65.

With CC(C)(c1ccc(Br)cc1)c1csc(NC(=O)NCc2cccc(N3CCNCC3)c2)n1 [Example A005, 1-(4-(2-(4-bromophenyl)propan-2-yl)thiazol-2-yl)-3-(3-(piperazin-1-yl)benzyl)urea] as the molecule, how does the pIC50 ([1]; Homo sapiens, HEK293) read?
The pIC50 was 5.94.

With CC(C)(c1ccc(Br)cc1)c1csc(NC(=O)NCc2ccc(N3CCNCC3)c(Br)c2)n1 [Example A097, 1-(3-bromo-4-(piperazin-1-yl)benzyl)-3-(4-(2-(4-bromophenyl)propan-2-yl)thiazol-2-yl)urea] as the molecule, how does the pIC50 ([1]; Homo sapiens, HEK293) read?
The pIC50 was 5.85.

With COc1ccc(C(C)(C)c2csc(NC(=O)NCCCCNc3ccccc3)n2)cc1 [Example A147, 1-(4-(2-(4-methoxyphenyl)propan-2-yl)thiazol-2-yl)-3-(4-(phenylamino)butyl)urea] as the molecule, how does the pIC50 ([1]; Homo sapiens, HEK293) read?
Its pIC50 is 5.72.

How did the pIC50 ([1]; Homo sapiens, HEK293) turn out when COc1ccc(C(C)(C)c2csc(NC(=O)NCc3cc(F)c(C4CCNCC4)c(F)c3)n2)cc1 [Example A151, 1-(3,5-difluoro-4-(piperidin-4-yl)benzyl)-3-(4-(2-(4-methoxyphenyl)propan-2-yl)thiazol-2-yl)urea hydrochloride] was run?
The pIC50 was 6.02.

How did the pIC50 ([1]; Homo sapiens, HEK293) turn out when CC(C)(c1ccc(I)cc1)c1csc(NC(=O)NCc2cnc(N3CCNCC3)nc2)n1 [Example A178, 1-(4-(2-(4-iodophenyl)propan-2-yl)thiazol-2-yl)-3-((2-(piperazin-1-yl)pyrimidin-5-yl)methyl)urea] was run?
The pIC50 was 6.04.

With C#C[C@@](C)(c1ccc(Cl)cc1)c1csc(NC(=O)c2c(F)cc(N3CCN(CCO)CC3)cc2F)n1 [Example C023, (S)-N-(4-(2-(4-chlorophenyl)but-3-yn-2-yl)thiazol-2-yl)-2,6-difluoro-4-(4-(2-hydroxyethyl)piperazin-1-yl)benzamide] as the molecule, how does the pIC50 (ALPK1) read?
Its pIC50 is 7.22.

COC[C@](C)(c1ccc(Cl)cc1)c1csc(NC(=O)c2c(F)cc(N3CCNCC3)cc2F)n1 [Example C024, (R)-N-(4-(2-(4-chlorophenyl)-1-methoxypropan-2-yl)thiazol-2-yl)-2,6-difluoro-4-(piperazin-1-yl)benzamide] was tested. Which pIC50 (ALPK1) did it give?
Its pIC50 is 6.89.

How did the pIC50 (ALPK1) turn out when COC[C@@](C)(c1ccc(Cl)cc1)c1csc(NC(=O)c2c(F)cc(N3CCNCC3)cc2F)n1 [Example C025, (S)-N-(4-(2-(4-chlorophenyl)-1-methoxypropan-2-yl)thiazol-2-yl)-2,6-difluoro-4-(piperazin-1-yl)benzamide] was run?
Its pIC50 is 8.10.

How did the pIC50 (ALPK1) turn out when O=C(Nc1nc(C2(c3ccc(Br)cc3)CCCC2)cs1)c1c(F)cc(N2CCNCC2)cc1F [Example C026, N-(4-(1-(4-bromophenyl)cyclopentyl)thiazol-2-yl)-2,6-difluoro-4-(piperazin-1-yl)benzamide] was run?
The pIC50 was 6.36.

COCC(C)(c1ccc(Br)cc1)c1csc(NC(=O)c2c(F)cc(N3CCNCC3)cc2F)n1 (stereo not drawn) [Example C027, N-(4-(2-(4-bromophenyl)-1-methoxypropan-2-yl)thiazol-2-yl)-2,6-difluoro-4-(piperazin-1-yl)benzamide] was tested. Which pIC50 (ALPK1) did it give?
Its pIC50 is 7.00.

With COCC(C)(c1ccc(OC)cc1)c1csc(NC(=O)c2c(F)cc(N3CCNCC3)cc2F)n1 (stereo not drawn) [Example C028, 2,6-difluoro-N-(4-(1-methoxy-2-(4-methoxyphenyl)propan-2-yl)thiazol-2-yl)-4-(piperazin-1-yl)benzamide] as the molecule, how does the pIC50 (ALPK1) read?
Its pIC50 is 6.54.

With COCC(C)(c1ccc(Cl)cc1)c1csc(NC(=O)c2c(F)cc(N3CCNCC3)cc2F)n1 (stereo not drawn) [Example C029, N-(4-(2-(4-chlorophenyl)-1-methoxypropan-2-yl)thiazol-2-yl)-2,6-difluoro-4-(piperazin-1-yl)benzamide] as the molecule, how does the pIC50 (ALPK1) read?
Its pIC50 is 6.89.

How did the pIC50 (ALPK1) turn out when CN1CCN(c2cc(F)c(C(=O)Nc3nc(C4(c5ccc(Br)cc5)CCCC4)cs3)c(F)c2)CC1 [Example C030, N-(4-(1-(4-bromophenyl)cyclopentyl)thiazol-2-yl)-2,6-difluoro-4-(4-methylpiperazin-1-yl)benzamide] was run?
Its pIC50 is 5.75.

With CCOCC(C)(c1ccccc1)c1csc(NC(=O)c2c(F)cc(N3CCNCC3)cc2F)n1 (stereo not drawn) [Example C031, N-(4-(1-ethoxy-2-phenylpropan-2-yl)thiazol-2-yl)-2,6-difluoro-4-(piperazin-1-yl)benzamide] as the molecule, how does the pIC50 (ALPK1) read?
The pIC50 was 6.19.

How did the pIC50 (ALPK1) turn out when C#CC(C)(c1ccc(OC(F)F)cc1)c1csc(NC(=O)c2c(F)cc(N3CCNCC3)cc2F)n1 (stereo not drawn) [Example C033, N-(4-(2-(4-(difluoromethoxy)phenyl)but-3-yn-2-yl)thiazol-2-yl)-2,6-difluoro-4-(piperazin-1-yl)benzamide] was run?
Its pIC50 is 7.14.

With CC(c1ccc(Cl)cc1)(c1csc(NC(=O)c2c(F)cc(N3CCNCC3)cc2F)n1)C1CC1 (stereo not drawn) [Example C045, N-(4-(1-(4-chlorophenyl)-1-cyclopropylethyl)thiazol-2-yl)-2,6-difluoro-4-(piperazin-1-yl)benzamide] as the molecule, how does the pIC50 (ALPK1) read?
Its pIC50 is 7.60.

How did the pIC50 (ALPK1) turn out when C#CC(CC)(c1ccc(Cl)cc1)c1csc(NC(=O)c2c(F)cc(N3CCNCC3)cc2F)n1 (stereo not drawn) [Example C047, N-(4-(3-(4-chlorophenyl)pent-1-yn-3-yl)thiazol-2-yl)-2,6-difluoro-4-(piperazin-1-yl)benzamide] was run?
The pIC50 was 6.88.

How did the pIC50 (ALPK1) turn out when C#CC(C)(c1ccc(Cl)cc1)c1coc(NC(=O)c2c(F)cc(N3CCNCC3)cc2F)n1 (stereo not drawn) [Example C051, N-(4-(2-(4-chlorophenyl)but-3-yn-2-yl)oxazol-2-yl)-2,6-difluoro-4-(piperazin-1-yl)benzamide] was run?
Its pIC50 is 7.59.

C#CC(C)(c1ccc(Cl)cc1)c1c[nH]c(NC(=O)c2c(F)cc(N3CCNCC3)cc2F)n1 (stereo not drawn) [Example C052, N-(4-(2-(4-chlorophenyl)but-3-yn-2-yl)-1H-imidazol-2-yl)-2,6-difluoro-4-(piperazin-1-yl)benzamide] was tested. Which pIC50 (ALPK1) did it give?
Its pIC50 is 7.36.

With CC(=O)Nc1nc(C(C)(C)c2ccc(Br)cc2)cs1 [Example D001, N-(4-(2-(4-bromophenyl)propan-2-yl)thiazol-2-yl)acetamide] as the molecule, how does the pIC50 (ALPK1) read?
The pIC50 was 7.00.

How did the pIC50 (ALPK1) turn out when C#CC(C)(c1ccc(OC)cc1)c1csc(NC(C)=O)n1 (stereo not drawn) [Example D002, N-(4-(2-(4-methoxyphenyl)but-3-yn-2-yl)thiazol-2-yl)acetamide] was run?
The pIC50 was 6.71.

C#CC(C)(c1csc(NC(C)=O)n1)c1ccc(Br)cc1F (stereo not drawn) [Example D003, N-(4-(2-(4-bromo-2-fluorophenyl)but-3-yn-2-yl)thiazol-2-yl)acetamide] was tested. Which pIC50 (ALPK1) did it give?
The pIC50 was 6.74.

C#CC(C)(c1ccc(Cl)cc1)c1csc(NC(C)=O)n1 (stereo not drawn) [Example D004, N-(4-(2-(4-chlorophenyl)but-3-yn-2-yl)thiazol-2-yl)acetamide] was tested. Which pIC50 (ALPK1) did it give?
Its pIC50 is 7.74.

C#CC(C)(c1ccc(Br)cc1)c1csc(NC(=O)C2CC(O)C2)n1 (stereo not drawn) [Example D007, N-(4-(2-(4-bromophenyl)but-3-yn-2-yl)thiazol-2-yl)-3-hydroxycyclobutanecarboxamide] was tested. Which pIC50 (ALPK1) did it give?
The pIC50 was 7.26.

How did the pIC50 (ALPK1) turn out when C#CC(CC)(c1ccc(Br)cc1)c1csc(NC(C)=O)n1 (stereo not drawn) [Example D008, N-(4-(3-(4-bromophenyl)pent-1-yn-3-yl)thiazol-2-yl)acetamide] was run?
The pIC50 was 6.84.

— patent US20240109853A1 (Shanghai Yao Yuan Biotechnology Co., Ltd., priority 2020, published 2024)
